Test results as given in PMC7540527, “Synthesis of Antiviral Perfluoroalkyl Derivatives of Teicoplanin and Vancomycin” (Chemmedchem, 2020).
Values after ≈ are worked out from the molar mass of the structure shown. Structures can show the parent of a compound that is named as a salt. Where two headings read alike, the source gives them in different places.

Key:
[1] = test system: herpes simplex virus type 1 (HSV-1); assay: microbe, parasite or virus in culture; assay type: cell-based; details: Human alphaherpesvirus 1, HEL, read-out: Antiviral EC50 HSV‐1
[2] = test system: herpes simplex virus type 2 (HSV-2); assay: microbe, parasite or virus in culture; assay type: cell-based; details: Human alphaherpesvirus 2, HEL, read-out: Antiviral EC50 HSV‐2
vaccinia virus = assay: microbe, parasite or virus in culture; assay type: cell-based; details: Orthopoxvirus vaccinia, HEL, read-out: Antiviral EC50 Vaccinia
in vitro [3] = details: human
[4] = test system: influenza A/H1N1 A/Ned/378/05; assay: microbe, parasite or virus in culture; assay type: cell-based, influenza A virus; details: Influenza A virus, H1N1, MDCK
[5] = test system: influenza A/H3N2 A/Victoria/361/11; assay: microbe, parasite or virus in culture; assay type: cell-based, influenza A virus; details: Influenza A virus, H3N2, MDCK
[6] = test system: influenza B virus B/Ned/537/05; assay: CPE reduction assay for influenza virus in MDCK cells, influenza B; assay type: cell-based; details: Influenza B virus
Description: The CPE reduction assay for influenza virus was described in full detail in previous publications.41 The virus strains were: A/PR/8/34 (A/H1 N1); A/Virginia/ATCC3/2009 (A/H1 N1pdm); A/HK/7/87 (A/H3 N2); B/Ned/537/05; and B/HK/5/72. On day 0, Madin‐Darby canine kidney (MDCK) cells in 96‐well plates were infected with influenza virus at a multiplicity of infection (MOI) of 0.0004 plaque forming units (PFU) per cell. After three days incubation at 35 °C, virus‐induced CPE and compound cytotoxicity were scored by microscopy, after which the data were confirmed by formazan‐based MTS cell viability assay (CellTiter 96® AQueous One Solution Cell Proliferation Assay from Promega). The antiviral effect was expressed as the compound concentration producing 50 % inhibition of the virus‐induced CPE (EC50). Compound cytotoxicity was expressed as the compound concentration causing minimal changes in cell morphology (MCC), and 50 % cytotoxic concentration (CC50) based on MTS assay.42

MDCK cells = details: for Cytotoxicity MCC (minimum cytotoxic concentration) / CC50: dog
in vitro [7] = details: dog
[8] = test system: thymidine-kinase deficient (TK-) mutant of HSV-1; assay: microbe, parasite or virus in culture; assay type: cell-based, herpes simplex virus type 1; details: Human alphaherpesvirus 1, HEL, read-out: Antiviral EC50 HSV‐1/TK−
[9] = test system: human adenovirus type 2 (AdV-2); assay: microbe, parasite or virus in culture; assay type: cell-based; details: Human mastadenovirus C, HEL, read-out: Antiviral EC50 AdV‐2
[10] = test system: Bacillus subtilis ATCC 6633; assay: Antibacterial MIC; assay type: cell-based; details: Bacillus subtilis, ATCC6633, read-out: MIC Bacillus subtilis ATCC 6633
[11] = test system: Staphylococcus aureus MSSA ATCC 29213; assay: Antibacterial MIC; assay type: cell-based; details: Staphylococcus aureus, read-out: MIC Staphylococcus aureus MSSA ATCC 29213
[12] = test system: S. aureus MRSA ATCC 33591; assay: Antibacterial MIC; assay type: cell-based, Staphylococcus aureus; details: Staphylococcus aureus, read-out: MIC S. aureus MRSA ATCC 33591
[13] = test system: Staphylococcus epidermidis ATCC 35984 biofilm; assay: Antibacterial MIC; assay type: cell-based
[14] = test system: Enterococcus faecalis ATCC 29212; assay: Antibacterial MIC; assay type: cell-based; details: Enterococcus faecalis, ATCC29212, read-out: MIC Enterococcus faecalis ATCC 29212
E. faecalis 15376 VanA = assay: Antibacterial MIC; assay type: cell-based, Enterococcus faecalis; details: Enterococcus faecalis, 15376VANA, read-out: MIC E. faecalis 15376 VanA
[15] = test system: E. faecalis ATCC 51299 VanB; assay: Antibacterial MIC; assay type: cell-based, Enterococcus faecalis; details: Enterococcus faecalis, ATCC51299, read-out: MIC E. faecalis ATCC 51299 VanB
[16] = test system: panel of Gram-positive bacteria; assay type: cell-based
HeLa cells = details: human
[17] = test system: Vesicular stomatitis virus; assay: microbe, parasite or virus in culture; assay type: cell-based; details: HeLa, read-out: Antiviral EC50 Vesicular stomatitis virus, Visual CPE score
Coxsackie virus B4 [18] = assay: microbe, parasite or virus in culture; assay type: cell-based; details: Enterovirus B, B4, HeLa, read-out: Antiviral EC50 Coxsackie virus B4, Visual CPE score
[19] = test system: Respiratory syncytial virus; assay: microbe, parasite or virus in culture; assay type: cell-based; details: human respiratory syncytial virus, HeLa, read-out: Antiviral EC50 Respiratory syncytial virus, Visual CPE score
in vitro [20] = details: human; remark: listed apart in the source
Reovirus-1 = assay: organism not typed; assay type: cell-based; details: Vero
Sindbis virus = assay: microbe, parasite or virus in culture; assay type: cell-based; details: Vero
Coxsackie virus B4 [21] = assay: microbe, parasite or virus in culture; assay type: cell-based; details: Enterovirus B, B4, Vero
Punta Toro virus = assay: microbe, parasite or virus in culture; assay type: cell-based; details: Vero
Yellow Fever virus (17D) = assay: microbe, parasite or virus in culture; assay type: cell-based; details: Vero
[22] = test system: Zika virus (strain MR766); assay: microbe, parasite or virus in culture; assay type: cell-based; details: Vero
Vero cells = details: African green monkey
in vitro [23] = details: African green monkey
[24] = test system: influenza A and B viruses; assay type: cell-based, influenza virus
[25] = test system: HEL human embryonic lung fibroblast cells
[26] = read-out: Antiviral EC50 A/H1N1 CPE
[27] = read-out: Antiviral EC50 A/H1N1 MTS
[28] = read-out: Antiviral EC50 A/H3N2 CPE
[29] = read-out: Antiviral EC50 A/H3N2 MTS

Nc1nc2c(ncn2COCCO)c(=O)[nH]1 [acyclovir]
EC50 [1]: 2.4 µM
EC50 [2]: 0.05 µM
EC50 (vaccinia virus): > 250 µM
CC50 (in vitro [3]): > 250 µM

CN[C@H](CC(C)C)C(=O)N[C@H]1C(=O)N[C@@H](CC(N)=O)C(=O)N[C@H]2C(=O)N[C@H]3C(=O)N[C@H](C(=O)N[C@H](C(=O)O)c4cc(O)cc(O)c4-c4cc3ccc4O)[C@H](O)c3ccc(c(Cl)c3)Oc3cc2cc(c3O[C@@H]2O[C@H](CO)[C@@H](O)[C@H](O)[C@H]2O[C@H]2C[C@](C)(N)[C@H](O)[C@H](C)O2)Oc2ccc(cc2Cl)[C@H]1O [vancomycin⋅HCl]
EC50 [4, 26]: > 100 µM
EC50 [4, 27]: > 100 µM
EC50 [5, 28]: > 100 µM
EC50 [5, 29]: > 100 µM
EC50 ([6]; MDCK, read-out: Antiviral EC50 Influenza B CPE): > 100 µM
EC50 ([6]; MDCK, read-out: Antiviral EC50 Influenza B MTS): > 100 µM
Cytotoxicity MCC (minimum cytotoxic concentration) (MDCK cells): >100 µM
CC50 (in vitro [7]): > 100 µM

Nc1ccn(C[C@@H](CO)OCP(=O)(O)O)c(=O)n1 [cidofovir]
EC50 [1]: 2.4 µM
EC50 [8]: 4.7 µM
EC50 [2]: 1 µM
EC50 (vaccinia virus): 10 µM
EC50 [9]: 6.4 µM
CC50 (in vitro [3]): > 250 µM

CC(C)C[C@H](C(=O)N[C@H]1C(=O)N[C@@H](CC(N)=O)C(=O)N[C@H]2C(=O)N[C@H]3C(=O)N[C@H](C(=O)N[C@H](C(=O)O)c4cc(O)cc(O)c4-c4cc3ccc4O)[C@H](O)c3ccc(c(Cl)c3)Oc3cc2cc(c3O)Oc2ccc(cc2Cl)[C@H]1O)n1cc(COCCOCCOCCOCCOCCCC(F)(F)C(F)(F)C(F)(F)C(F)(F)C(F)(F)C(F)(F)C(F)(F)C(F)(F)F)nn1 [Compound 13]
MIC [10]: 16 µg/mL (≈ 8.66 µM)
MIC [11]: 8 µg/mL (≈ 4.33 µM)
MIC [12]: 8 µg/mL (≈ 4.33 µM)
MIC Staphylococcus epidermidis ATCC 35984 biofilm [13]: 16 µg/mL (≈ 8.66 µM)
MIC [14]: 4 µg/mL (≈ 2.16 µM)
MIC (E. faecalis 15376 VanA): 256 µg/mL (≈ 139 µM)
MIC [15]: 32 µg/mL (≈ 17.3 µM)
Antibacterial activity (in words) [16]: moderate activity
Cytotoxicity in MDCK cells (in words) (MDCK cells): highly cytotoxic
CC50 (MDCK cells): 0.8 µM
Cytotoxicity MCC (minimum cytotoxic concentration) (MDCK cells): 0.8 µM
CC50 (HeLa cells): > 100 µM
Cytotoxicity MCC (HeLa cells): ≥ 100

CC(=O)N[C@H]1[C@H]([C@H](O)[C@H](O)CO)OC(C(=O)O)=C[C@@H]1N=C(N)N [zanamivir]
EC50 [4, 26]: 1.5 µM
EC50 [4, 27]: 3.1 µM
EC50 [5, 28]: 20 µM
EC50 [5, 29]: 9 µM
EC50 ([6]; MDCK cells, B/Ned/537/05, MTS assay, read-out: Antiviral EC50 Influenza B MTS): 1.7 µM
EC50 ([6]; MDCK cells, B/Ned/537/05, visual CPE scoring, read-out: Antiviral EC50 Influenza B CPE): 2 µM
Cytotoxicity MCC (minimum cytotoxic concentration) (MDCK cells): >100 µM
CC50 (in vitro [7]): > 100 µM

CC(C)C[C@H](C(=O)N[C@H]1C(=O)N[C@@H](CC(N)=O)C(=O)N[C@H]2C(=O)N[C@H]3C(=O)N[C@H](C(=O)N[C@H](C(=O)O)c4cc(O)cc(O)c4-c4cc3ccc4O)[C@H](O)c3ccc(c(Cl)c3)Oc3cc2cc(c3O)Oc2ccc(cc2Cl)[C@H]1O)n1cc(COCCOCCOCCOCCOCCCC(F)(F)C(F)(F)C(F)(F)C(F)(F)F)nn1 [Compound 12]
MIC [10]: 32 µg/mL (≈ 19.4 µM)
MIC [11]: 4 µg/mL (≈ 2.43 µM)
MIC [12]: 8 µg/mL (≈ 4.85 µM)
MIC Staphylococcus epidermidis ATCC 35984 biofilm [13]: 8 µg/mL (≈ 4.85 µM)
MIC [14]: 8 µg/mL (≈ 4.85 µM)
MIC (E. faecalis 15376 VanA): 16 µg/mL (≈ 9.71 µM)
MIC [15]: 16 µg/mL (≈ 9.71 µM)
Antibacterial activity (in words) [16]: moderate activity
Cytotoxicity in MDCK cells (in words) (MDCK cells): highly cytotoxic
CC50 (MDCK cells): 4 µM
Cytotoxicity MCC (minimum cytotoxic concentration) (MDCK cells): 42 µM
CC50 (HeLa cells): > 100 µM
Cytotoxicity MCC (HeLa cells): > 100

NC(=O)c1ncn([C@@H]2O[C@H](CO)[C@@H](O)[C@H]2O)n1 [Ribavirin]
EC50 [17]: 87 µM
EC50 (Coxsackie virus B4 [18]): 126 µM
EC50 [19]: 5 µM
CC50 (in vitro [20]): > 250 µM

COc1c(C)c2c(c(O)c1C/C=C(\C)CCC(=O)O)C(=O)OC2 [Mycophenolic acid]
EC50 (Reovirus-1; read-out: Antiviral EC50 Reovirus-1, MTS): 4 µM
EC50 (Reovirus-1; read-out: Antiviral EC50 Reovirus-1, Visual CPE score): 3.3 µM
EC50 (Sindbis virus; read-out: Antiviral EC50 Sindbis virus, MTS): 4 µM
EC50 (Sindbis virus; read-out: Antiviral EC50 Sindbis virus, Visual CPE score): 5.7 µM
EC50 (Coxsackie virus B4 [21]; read-out: Antiviral EC50 Coxsackie virus B4, MTS): > 100 µM
EC50 (Coxsackie virus B4 [21]; read-out: Antiviral EC50 Coxsackie virus B4, Visual CPE score): > 100 µM
EC50 (Punta Toro virus; read-out: Antiviral EC50 Punta Toro virus, MTS): 10.6 µM
EC50 (Punta Toro virus; read-out: Antiviral EC50 Punta Toro virus, Visual CPE score): > 100 µM
EC50 (Yellow Fever virus (17D); read-out: Antiviral EC50 Yellow Fever virus, MTS): 1.4 µM
EC50 (Yellow Fever virus (17D); read-out: Antiviral EC50 Yellow Fever virus, Visual CPE score): > 100 µM
EC50 ([22]; read-out: Antiviral EC50 Zika virus, MTS): 1.5 µM
EC50 ([22]; read-out: Antiviral EC50 Zika virus, Visual CPE score): 0.8 µM
Cytotoxicity MCC (Vero cells): > 100
CC50 (in vitro [23]): > 100 µM

CC(=O)NC1C(OC2c3ccc(c(Cl)c3)Oc3cc4cc(c3O)Oc3ccc(cc3Cl)CC3NC(=O)C(n5cc(COCCOCCCC(F)(F)C(F)(F)C(F)(F)C(F)(F)C(F)(F)C(F)(F)C(F)(F)C(F)(F)F)nn5)c5ccc(O)c(c5)Oc5cc(O)cc(c5)C(NC3=O)C(=O)NC4C(=O)NC3C(=O)NC2C(=O)NC(C(=O)O)c2cc(O)cc(O)c2-c2cc3ccc2O)OC(CO)C(O)C1O (centres unmarked) [Compound 17]
MIC [10]: 128 µg/mL (≈ 64.4 µM)
MIC [11]: 16 µg/mL (≈ 8.05 µM)
MIC [12]: 16 µg/mL (≈ 8.05 µM)
MIC Staphylococcus epidermidis ATCC 35984 biofilm [13]: 16 µg/mL (≈ 8.05 µM)
MIC [14]: 256 µg/mL (≈ 129 µM)
MIC (E. faecalis 15376 VanA): 256 µg/mL (≈ 129 µM)
MIC [15]: 256 µg/mL (≈ 129 µM)
Activity against influenza strains (in words) [24]: robust activity
CC50 (MDCK cells): 44 µM
Cytotoxicity MCC (minimum cytotoxic concentration) (MDCK cells): 100 µM
CC50 [25]: > 100 µM
CC50 (HeLa cells): > 100 µM
Cytotoxicity MCC (HeLa cells): > 100
CC50 (Vero cells): > 100 µM

Cc1cn([C@H]2C[C@H](F)[C@@H](CO)O2)c(=O)[nH]c1=O [alovudine]
EC50 [9]: 5.9 µM
CC50 (in vitro [3]): > 250 µM
